Source: US20080176810A1, “Use of 3, 4', 5-Trihydroxy-Stilbene-3-Beta-D-glucoside in Prepartion of Medicines For Treating and/or Preventing Ischemic Heart Disease” (SHENZHEN NEPTUNUS PHARMACEUTICAL CO., LTD., priority 2004, published 2008)

System: anesthetized dogs
Assay: Myocardial oxygen consumption, coronary flow, cardiac output in anesthetized dogs, iv
Format: in vivo
Conditions: c3-c8 5,15,30,60,90,120 min after administration; for cardiac output, x ± s / myocardial oxygen uptake, x ± s / coronary artery resistance, x ± s / myocardial oxygen consumption, x ± s / total peripheral resistance (TPR), x ± s: c2 0 min before
Description: Isosorbide Dinitrate control group were medicated by continuous intravenous infusion and other groups by intravenous injection.
The animals were anesthetised with 3% pentobarbital sodium iv at the dose of 30 mg/kg. Tracheal intubation was performed and SC-M5 anesthesia respirator (manufactured by Shanghai Medical Instrument Factory, frequency: 16˜18 per min, tidal volume: 350˜550 ml) was connected. Bilateral femoral arteries were separated for blood sampling and analyzing and measurement of mean blood pressure. Thoracotomy at the fourth intercostal space was performed to expose the heart and to open the pericardium to make pericardial hammock. Ascending aortic root and upper part of left branch of anterior descending coronary artery were dissociated to put respectively probes of electromagnetic flowmeter (MFV-1100/1200, made by Japanese Nihon Kohden Company) to measure cardiac output and coronary artery flow rate. Right jugular vein was separated for insertion of a cardiac catheter that was guided into coronary venous sinuses before fixation. Synchronously, blood was sampled by drawing from coronary sinus and femoral artery (0.5% heparin was added for anticoagulation). pO2 and pH were detected with a blood gas analyzer (DH-1830 Blood Gas Acid-base Analyze, Nanjing Ananalysis Apparatus Factor) and the values were converted to artery and venous oxygen content. After intravenous infusion of control solvent or the drug, constant infusion for all groups was completed with an electronic constant flow pump (SH-88AB Controllable Intravenous Injector made by Quanzhou Lizhong Electronic Medical Instrument Factory). Both artery and venous blood gas before administration or 5, 15, 30, 60, 90 and 120 min after administration was analyzed and mean blood pressure and cardiac output at 0, 5, 15, 30, 60, 90 and 120 min were observed.
Myocardial oxygen consumption(ml/min/100 g)=coronary flow ml/min/100 g×artery oxygen−coronary sinus oxygen ml %).
Myocardial oxygen uptake (%)=(artery oxygen ml %−coronary sinus oxygen ml %)/artery oxygen ml %
Total peripheral resistance of general circulation(dyn·s·cm−5)=mean arterial blood pressure[MAP(KPa)]×80/cardiac output[CO(L/min)]=mean arterial blood pressure[MAP(mmHg)]×10.6/cardiac output[CO(L/min)]
Coronary resistance[Kpa/ml/min]=mean arterial blood pressure[MAP(KPa)]/coronary artery flow.

[1] = TSG 5 mg/kg iv, before administration, 0 min
[2] = TSG 5 mg/kg iv, 5 min after administration
[3] = TSG 5 mg/kg iv, 15 min after administration
[4] = TSG 5 mg/kg iv, 30 min after administration
[5] = TSG 5 mg/kg iv, 60 min after administration
[6] = TSG 5 mg/kg iv, 90 min after administration
[7] = TSG 5 mg/kg iv, 120 min after administration
[8] = TSG 10 mg/kg iv, 0 min, before administration
[9] = TSG 10 mg/kg iv, 5 min after administration
[10] = TSG 10 mg/kg iv, 15 min after administration
[11] = TSG 10 mg/kg iv, 30 min after administration
[12] = TSG 10 mg/kg iv, 60 min after administration
[13] = TSG 10 mg/kg iv, 90 min after administration
[14] = TSG 10 mg/kg iv, 120 min after administration
[15] = TSG 10 mg/kg iv, before administration, 0 min

In the case of “3,4′,5-trihydroxy-stilbene-3-β-D-glucoside [TSG]”, the “cardiac output, x ± s” value [1] was 1.09 ± 0.14 L/min, the “myocardial oxygen uptake, x ± s” value [1] was 79.5 ± 6.93% and the “cardiac output, variation %” value [2] was 3.58 ± 2.00%. For the same substance, the “coronary artery resistance, variation %” value [2] was 3.03%, the “myocardial oxygen consumption, variation %” value [2] was −0.52 ± 1.59% and the “myocardial oxygen uptake, variation %” value [2] was 0.15%. For the same substance, the “total peripheral resistance (TPR), variation %” value [2] was −0.82 ± 2.72%, the “cardiac output, variation %” value [3] was 3.47 ± 0.97% and the “coronary artery resistance, variation %” value [3] was 2.18 ± 2.46%. For the same substance, the “total peripheral resistance (TPR), variation %” value [3] was 1.31 ± 2.04%, the “cardiac output, variation %” value [4] was 5.25 ± 2.62% and the “coronary artery resistance, variation %” value [4] was 0.02 ± 3.86%. The “myocardial oxygen consumption, variation %” value [4] was −0.59 ± 2.68%, the “myocardial oxygen uptake, variation %” value [4] was −5.76 ± 5.34 % and the “total peripheral resistance (TPR), variation %” value [4] was 0.90 ± 1.20%. For the same substance, the “cardiac output, variation %” value [5] was 6.05 ± 2.06 %, the “coronary artery resistance, variation %” value [5] was −3.62 ± 3.63% and the “myocardial oxygen consumption, variation %” value [5] was 0.68 ± 1.74%. The “myocardial oxygen uptake, variation %” value [5] was −6.24 ± 4.39 %, the “total peripheral resistance (TPR), variation %” value [5] was 0.20 ± 1.19% and the “cardiac output, variation %” value [6] was 5.98 ± 2.02 %. For the same substance, the “coronary artery resistance, variation %” value [6] was −4.03 ± 2.13%, the “myocardial oxygen consumption, variation %” value [6] was −0.91 ± 2.81% and the “myocardial oxygen uptake, variation %” value [6] was −5.51 ± 4.5 %. The “total peripheral resistance (TPR), variation %” value [6] was −1.59 ± 3.63%, the “cardiac output, variation %” value [7] was 4.86 ± 2.88% and the “coronary artery resistance, variation %” value [7] was −3.99 ± 3.34 %. The “total peripheral resistance (TPR), variation %” value [7] was −2.75 ± 3.55%, the “coronary artery resistance, x ± s” value [8] was 0.273 ± 0.032 Kpa/ml/min and the “myocardial oxygen consumption, x ± s” value [8] was 214.1 ± 6.66 mL/min.100 g^−1. For the same substance, the “total peripheral resistance (TPR), x ± s” value [8] was 891.8 ± 93.4 dyn·s·cm^−5, the “cardiac output, x ± s” value [9] was 1.13 ± 0.13 L/min and the “coronary artery resistance, x ± s” value [9] was 0.286 Kpa/ml/min. The “myocardial oxygen consumption, x ± s” value [9] was 211.0 ± 5.44 mL/min.100 g^−1, the “myocardial oxygen uptake, x ± s” value [9] was 78.7% and the “total peripheral resistance (TPR), x ± s” value [9] was 890.5 ± 82.2 dyn·s·cm^−5. For the same substance, the “cardiac output, x ± s” value [10] was 1.14 ± 0.14 L/min, the “coronary artery resistance, x ± s” value [10] was 0.278 ± 0.028 Kpa/ml/min and the “total peripheral resistance (TPR), x ± s” value [10] was 891.3 ± 78.1 dyn·s·cm^−5. For the same substance, the “cardiac output, x ± s” value [11] was 1.16 ± 0.13 L/min, the “coronary artery resistance, x ± s” value [11] was 0.274 ± 0.035 Kpa/ml/min and the “myocardial oxygen consumption, x ± s” value [11] was 208.0 ± 5.3 mL/min.100 g^−1. The “myocardial oxygen uptake, x ± s” value [11] was 71.3 ± 5.28%, the “total peripheral resistance (TPR), x ± s” value [11] was 903.4 ± 76.9 dyn·s·cm^−5 and the “cardiac output, x ± s” value [12] was 1.18 ± 0.14 L/min. The “coronary artery resistance, x ± s” value [12] was 0.267 ± 0.037 Kpa/ml/min, the “myocardial oxygen consumption, x ± s” value [12] was 210.3 ± 6.32 mL/min.100 g^−1 and the “myocardial oxygen uptake, x ± s” value [12] was 71.7 ± 5.71 %. For the same substance, the “total peripheral resistance (TPR), x ± s” value [12] was 878.7 ± 90.9 dyn·s·cm^−5, the “cardiac output, x ± s” value [13] was 1.18 ± 0.15 L/min and the “coronary artery resistance, x ± s” value [13] was 0.270 ± 0.040 Kpa/ml/min. The “myocardial oxygen consumption, x ± s” value [13] was 209.1 ± 6.38 mL/min.100 g^−1, the “myocardial oxygen uptake, x ± s” value [13] was 72.4 ± 5.51 % and the “total peripheral resistance (TPR), x ± s” value [13] was 872.9 ± 98.6 dyn·s·cm^−5. The “cardiac output, x ± s” value [14] was 1.15 ± 0.16 L/min, the “coronary artery resistance, x ± s” value [14] was 0.263 ± 0.038 Kpa/ml/min and the “total peripheral resistance (TPR), x ± s” value [14] was 863.7 ± 80.0 dyn·s·cm^−5. The “cardiac output, x ± s” value [15] was 1.08 ± 0.15 L/min, the “myocardial oxygen uptake, x ± s” value [15] was 80.0 ± 6.55% and the “cardiac output, variation %” value [9] was 4.60 ± 3.19%. For the same substance, the “coronary artery resistance, variation %” value [9] was 4.63%, the “myocardial oxygen consumption, variation %” value [9] was −1.45 ± 1.13% and the “myocardial oxygen uptake, variation %” value [9] was −1.46%. The “total peripheral resistance (TPR), variation %” value [9] was 0.02 ± 4.07%, the “cardiac output, variation %” value [10] was 5.74 ± 2.02 % and the “coronary artery resistance, variation %” value [10] was 1.79 ± 3.25%. For the same substance, the “total peripheral resistance (TPR), variation %” value [10] was 0.09 ± 2.25%, the “cardiac output, variation %” value [11] was 7.43 ± 3.40 % and the “coronary artery resistance, variation %” value [11] was 0.21 ± 1.44%. The “myocardial oxygen consumption, variation %” value [11] was −2.77 ± 3.75%, the “myocardial oxygen uptake, variation %” value [11] was −10.7 ± 4.01 % and the “total peripheral resistance (TPR), variation %” value [11] was 1.49 ± 3.81%. The “cardiac output, variation %” value [12] was 9.41 ± 4.82 %, the “coronary artery resistance, variation %” value [12] was −2.64 ± 2.78% and the “myocardial oxygen consumption, variation %” value [12] was −1.75 ± 3.51%. The “myocardial oxygen uptake, variation %” value [12] was −10.3 ± 5.25 %, the “total peripheral resistance (TPR), variation %” value [12] was −1.42 ± 3.68% and the “cardiac output, variation %” value [13] was 9.05 ± 2.24 %. The “coronary artery resistance, variation %” value [13] was −1.69 ± 4.78%, the “myocardial oxygen consumption, variation %” value [13] was −2.28 ± 3.5% and the “myocardial oxygen uptake, variation %” value [13] was −9.32 ± 3.22 %. For the same substance, the “total peripheral resistance (TPR), variation %” value [13] was −2.16 ± 2.50%, the “cardiac output, variation %” value [14] was 6.53 ± 2.43 % and the “coronary artery resistance, variation %” value [14] was −4.10 ± 5.44 %. The “total peripheral resistance (TPR), variation %” value [14] was −3.00 ± 4.04%.
